The values below come from patent publication US9376436B2, “2-(pyridin-2yl)-1, 7-diaza-spiro [4.4] nonane-6-one compound as voltage-gated sodium channels modulators” (CONVERGENCE PHARMACEUTICALS LIMITED, priority 2011, dated 2016).

Where a name gives a salt, the structure may show the parent alone. Read-outs that look alike come from different tables or passages of the source.

For this assay, the target named is T1, hNaV1.7 (Homo sapiens, UniProt Q15858).
T1 construct: expressed in transfected cells; host or cells: HEK293
Kind of assay: QPatch NaV1.7 assay (whole-cell patch clamp, QPatch16x). The assay is classed as cell-based. Conditions: HEK293-hNaV1.7 cells. The procedure, abridged: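 HEK293 cells expressing hNaV1.7 recorded by automated whole-cell patch clamp (CsF internal, pH 7.3). Peak currents from 20 ms steps to 0 mV measured at holding potentials of −90 mV and V1/2 SSI; four-point cumulative concentrations, 120 s each, Hill fits gave pIC50 at each potential.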

Where [1] appears, read: holding voltage V1/2 SSI (half of channels inactivated), read-out: QP Nav1.7 SSI vhalf pIC50 (converted).
[2] abbreviates: holding voltage −90 mV (most channels closed), read-out: QP Nav1.7 −90 mV pIC50 (converted).

T1 sequence (Q15858 whole entry): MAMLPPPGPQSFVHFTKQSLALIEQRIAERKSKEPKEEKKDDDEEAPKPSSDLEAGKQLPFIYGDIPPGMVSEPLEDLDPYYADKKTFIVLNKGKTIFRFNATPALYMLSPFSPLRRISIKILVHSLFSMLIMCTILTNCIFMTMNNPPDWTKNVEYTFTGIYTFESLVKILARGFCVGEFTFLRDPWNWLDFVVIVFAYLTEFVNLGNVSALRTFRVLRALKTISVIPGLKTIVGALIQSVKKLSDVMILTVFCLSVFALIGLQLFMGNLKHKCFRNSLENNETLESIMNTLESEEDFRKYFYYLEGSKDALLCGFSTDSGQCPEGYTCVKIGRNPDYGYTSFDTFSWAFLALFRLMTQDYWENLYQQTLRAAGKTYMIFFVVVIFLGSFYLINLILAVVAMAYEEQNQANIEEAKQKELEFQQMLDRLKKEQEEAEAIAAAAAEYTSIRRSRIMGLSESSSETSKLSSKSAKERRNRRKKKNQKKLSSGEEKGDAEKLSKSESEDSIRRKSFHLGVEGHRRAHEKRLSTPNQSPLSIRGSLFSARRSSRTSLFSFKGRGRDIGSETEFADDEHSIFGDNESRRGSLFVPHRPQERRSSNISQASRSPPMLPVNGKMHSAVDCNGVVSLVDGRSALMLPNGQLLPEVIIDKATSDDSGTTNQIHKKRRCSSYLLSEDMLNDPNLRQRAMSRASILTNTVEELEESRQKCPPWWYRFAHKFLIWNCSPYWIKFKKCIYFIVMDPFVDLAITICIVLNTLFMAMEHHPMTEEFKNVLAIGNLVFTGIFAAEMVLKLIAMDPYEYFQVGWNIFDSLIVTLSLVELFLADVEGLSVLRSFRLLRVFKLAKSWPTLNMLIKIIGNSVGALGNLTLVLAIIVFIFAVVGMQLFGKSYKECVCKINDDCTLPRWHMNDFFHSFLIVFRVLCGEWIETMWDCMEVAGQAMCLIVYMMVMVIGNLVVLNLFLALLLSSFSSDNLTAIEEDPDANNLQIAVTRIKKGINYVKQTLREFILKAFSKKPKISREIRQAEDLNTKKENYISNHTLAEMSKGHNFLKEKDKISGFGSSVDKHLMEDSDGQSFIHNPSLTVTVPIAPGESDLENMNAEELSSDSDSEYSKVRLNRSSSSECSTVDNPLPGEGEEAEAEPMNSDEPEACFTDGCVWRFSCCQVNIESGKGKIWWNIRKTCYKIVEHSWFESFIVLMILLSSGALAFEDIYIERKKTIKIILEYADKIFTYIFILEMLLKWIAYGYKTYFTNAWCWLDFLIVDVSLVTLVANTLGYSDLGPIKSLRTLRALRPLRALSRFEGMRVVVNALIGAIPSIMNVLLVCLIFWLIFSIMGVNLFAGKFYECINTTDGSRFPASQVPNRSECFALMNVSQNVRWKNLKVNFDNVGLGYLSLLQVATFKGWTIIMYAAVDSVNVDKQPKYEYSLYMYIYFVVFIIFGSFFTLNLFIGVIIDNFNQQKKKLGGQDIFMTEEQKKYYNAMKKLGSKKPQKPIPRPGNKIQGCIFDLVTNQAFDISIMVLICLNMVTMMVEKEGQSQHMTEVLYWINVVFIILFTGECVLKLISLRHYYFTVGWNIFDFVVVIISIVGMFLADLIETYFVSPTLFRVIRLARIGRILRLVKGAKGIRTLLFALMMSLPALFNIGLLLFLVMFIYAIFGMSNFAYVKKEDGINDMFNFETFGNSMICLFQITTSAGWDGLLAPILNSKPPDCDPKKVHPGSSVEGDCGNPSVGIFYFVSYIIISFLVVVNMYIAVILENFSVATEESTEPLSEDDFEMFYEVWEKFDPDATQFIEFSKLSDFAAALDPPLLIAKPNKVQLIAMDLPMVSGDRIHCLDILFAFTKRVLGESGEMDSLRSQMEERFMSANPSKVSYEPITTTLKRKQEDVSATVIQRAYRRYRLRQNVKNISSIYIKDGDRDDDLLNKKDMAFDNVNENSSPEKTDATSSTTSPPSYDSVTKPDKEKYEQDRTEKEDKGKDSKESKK

Turning to `COc1cc(C(F)(F)F)ccc1-c1cc(C)nc([C@H]2CC[C@]3(CCN(C)C3=O)N2)c1` [Example 90, (3R,5R)-3-[4-[2-Methoxy-4-(trifluoromethyl)phenyl]-6-methyl-2-pyridyl]-8-methyl-4,8-diazaspiro[4.4]nonan-9-one hydrochloride], the IC50 by setting is: under setting [1], 0.316 µM; under setting [2], 6.31 µM.

Turning to `COc1cc(C(F)(F)F)ccc1-c1cc([C@H]2CC[C@]3(CCN(C)C3=O)N2)ncc1C` [Example 130, (2R,5R)-2-[4-[2-Methoxy-4-(trifluoromethyl)phenyl]-5-methyl-2-pyridyl]-7-methyl-1,7-diazaspiro[4.4]nonan-6-one hydrochloride], the IC50 runs as follows: under setting [1], 7.94 µM; under setting [2], 158 µM.

For `CCOCc1ccc(F)c(-c2ccnc([C@H]3CC[C@@]4(CCN(C)C4=O)N3)c2)c1` [Example 189, (2R,5S)-2-[4-[5-(Ethoxymethyl)-2-fluoro-phenyl]-2-pyridyl]-7-methyl-1,7-diazaspiro[4.4]nonan-6-one hydrochloride], the IC50 is, setting by setting: under setting [1], 25.1 µM; under setting [2], 251 µM.

For the compound `CCOc1cc(-c2ccnc([C@@H]3CC[C@@]4(CCN(C)C4=O)N3)c2)c(F)cc1F` [Example 148, (2S,5S)-2-[4-(5-Ethoxy-2,4-difluoro-phenyl)-2-pyridyl]-7-methyl-1,7-diazaspiro[4.4]nonan-6-one hydrochloride], the IC50 by setting is: under setting [1], 31.6 µM; under setting [2], 398 µM.

As to `Cc1cc(-c2ccc(C(F)(F)F)cc2)cc([C@H]2CC[C@]3(CCCNC3=O)N2)n1` [Example 100, (2R,5S)-2-[6-Methyl-4-(4-trifluoromethyl-phenyl)-pyridin-2-yl]-1,7-diaza-spiro[4.5]decan-6-one hydrochloride], the IC50 was 0.2 µM under setting [1] and 1 µM under setting [2].

Regarding `CN1CCC[C@]2(CC[C@H](c3cc(-c4ccc(C(F)(F)F)cc4)ccn3)N2)C1=O` [Example 70, (2R,5S)-7-Methyl-2-[4-(4-trifluoromethyl-phenyl)-pyridin-2-yl]-1,7-diaza-spiro[4.5]decan-6-one hydrochloride], the IC50 was 1 µM under setting [1] and 12.6 µM under setting [2].

Consider `CCOc1cccc(-c2ccnc([C@H]3CC[C@@]4(CCN(C)C4=O)N3)c2)c1` [Example 82, (2R,5S)-2-[4-(3-Ethoxyphenyl)-2-pyridyl]-7-methyl-1,7-diazaspiro[4.4]nonan-6-one hydrochloride], for which the IC50 under setting [1] is 7.94 µM and the IC50 under setting [2] was 200 µM.

Consider `CCOc1cc(-c2ccnc([C@H]3CC[C@@]4(CCN(C)C4=O)N3)c2)c(F)cc1C` [Example 151, (2R,5S)-2-[4-(5-Ethoxy-2-fluoro-4-methyl-phenyl)-2-pyridyl]-7-methyl-1,7-diazaspiro[4.4]nonan-6-one hydrochloride], for which the IC50 runs as follows: under setting [1], 15.8 µM; under setting [2], 100 µM.

For the compound `CCn1cc2cc(F)c(-c3ccnc([C@H]4CC[C@@]5(CCN(C)C5=O)N4)c3)cc2n1` [Example 259, (2R,5S)-2-[4-(2-Ethyl-5-fluoro-indazol-6-yl)-2-pyridyl]-7-methyl-1,7-diazaspiro[4.4]nonan-6-one hydrochloride], the IC50 was 1260 µM under setting [1] and 158 µM under setting [2].

Consider `CN1CC[C@@]2(CC[C@H](c3cc(-c4ccccc4)ccn3)N2)C1=O` [Example 6, (2R,5S)-7-Methyl-2-(4-phenyl-pyridin-2-yl)-1,7-diaza-spiro[4.4]nonan-6-one hydrochloride], for which the IC50 runs as follows: under setting [1], 31.6 µM; under setting [2], 158 µM.

On to `CN1CC[C@@]2(CC[C@H](c3cc(-c4ccc(OC(F)F)cc4F)ccn3)N2)C1=O` [Example 156, (2R,5S)-2-[4-(4-Difluoromethoxy-2-fluoro-phenyl)-pyridin-2-yl]-7-methyl-1,7-diaza-spiro[4.4]nonan-6-one hydrochloride], for which the IC50 is 20 µM under setting [1] and 126 µM under setting [2].

Turning to `CCOc1ccc(F)c(-c2cc([C@@H]3CC[C@]4(CCN(C)C4=O)N3)ncc2F)c1` [Example 221, (2S,5R)-2-[4-(5-Ethoxy-2-fluoro-phenyl)-5-fluoro-2-pyridyl]-7-methyl-1,7-diazaspiro[4.4]nonan-6-one hydrochloride], the IC50 reads like this: under setting [1], 31.6 µM; under setting [2], 316 µM.

Regarding `CN1CC[C@]2(CC[C@@H](c3cc(-c4ccc(C(F)(F)F)cc4)ccn3)N2)C1=O` [Example 54, (2S,5R)-7-Methyl-2-[4-(4-trifluoromethyl-phenyl)-pyridin-2-yl]-1,7-diaza-spiro[4.4]nonan-6-one hydrochloride], the IC50 was 39.8 µM under setting [1] and 63.1 µM under setting [2].

Turning to `CN1CC[C@@]2(CC[C@H](c3cc(-c4cccc5cccnc45)ccn3)N2)C1=O` [Example 164, (2R,5S)-7-Methyl-2-[4-(8-quinolyl)-2-pyridyl]-1,7-diazaspiro[4.4]nonan-6-one hydrochloride], the IC50 reads like this: under setting [1], 39.8 µM; under setting [2], 1260 µM.

`CC(C)COc1cc(-c2ccnc([C@H]3CC[C@@]4(CCN(C)C4=O)N3)c2)ccc1F` [Example 194, (2R,5S)-2-[4-(4-Fluoro-3-isobutoxy-phenyl)-2-pyridyl]-7-methyl-1,7-diazaspiro[4.4]nonan-6-one hydrochloride]: the IC50 is, setting by setting: under setting [1], 1 µM; under setting [2], 15.8 µM.

As for `CN1CC[C@]2(CC[C@@H](c3cc(-c4ccccc4F)ccn3)N2)C1=O` [Example 34, (2S,5R)-2-[4-(2-Fluoro-phenyl)-pyridin-2-yl]-7-methyl-1,7-diaza-spiro[4.4]nonan-6-one hydrochloride], the IC50 was 158 µM under setting [1] and 251 µM under setting [2].

For the compound `O=C1NCCC[C@@]12CC[C@H](c1cc(-c3ccc(F)cc3)ccn1)N2` [Example 111, (2R,5R)-2-[4-(4-Fluoro-phenyl)-pyridin-2-yl]-1,7-diaza-spiro[4.5]decan-6-one hydrochloride], the IC50 was 63.1 µM under setting [1] and 200 µM under setting [2].

For `CC(C)Oc1ccc(-c2ccnc([C@H]3CC[C@@]4(CCN(C)C4=O)N3)c2)cc1` [Example 162, (2R,5S)-2-[4-(4-Isopropoxyphenyl)-2-pyridyl]-7-methyl-1,7-diazaspiro[4.4]nonan-6-one hydrochloride], the IC50 reads like this: under setting [1], 3.98 µM; under setting [2], 15.8 µM.

`CN1CC[C@@]2(CC[C@H](c3cc(-c4cc(OCC(F)F)ccc4F)ccn3)N2)C1=O` [Example 252, (2R,5S)-2-[4-[5-(2,2-Difluoroethoxy)-2-fluoro-phenyl]-2-pyridyl]-7-methyl-1,7-diazaspiro[4.4]nonan-6-one hydrochloride]: the IC50 under setting [1] was 12.6 µM and the IC50 under setting [2] is 79.4 µM.

Regarding `CN1CC[C@@]2(CC[C@H](c3cc(-c4cc(OC(F)F)ccc4F)ccn3)N2)C1=O` [Example 84, (2R,5S)-2-[4-[5-(Difluoromethoxy)-2-fluoro-phenyl]-2-pyridyl]-7-methyl-1,7-diazaspiro[4.4]nonan-6-one hydrochloride], the IC50 by setting is: under setting [1], 20 µM; under setting [2], 200 µM.

Regarding `CCOc1cccc(-c2cc(C)nc([C@H]3CC[C@@]4(CCN(C)C4=O)N3)c2)c1` [Example 207, (2R,5S)-2-[4-(3-Ethoxyphenyl)-6-methyl-2-pyridyl]-7-methyl-1,7-diazaspiro[4.4]nonan-6-one hydrochloride], the IC50 runs as follows: under setting [1], 6.31 µM; under setting [2], 79.4 µM.

With `COc1cc(C(F)(F)F)ccc1-c1cc(C)nc([C@@H]2CC[C@]3(CCN(C)C3=O)N2)c1` [Example 91, (3S,5R)-3-[4-[2-Methoxy-4-(trifluoromethyl)phenyl]-6-methyl-2-pyridyl]-8-methyl-4,8-diazaspiro[4.4]nonan-9-one hydrochloride], the IC50 under setting [1] was 2 µM and the IC50 under setting [2] was 39.8 µM.

As to `CN1CC[C@@]2(CC[C@H](c3cc(-c4ccc(F)cc4)ccn3)N2)C1=O` [Example 66, (2R,5S)-2-[4-(4-Fluorophenyl)-2-pyridyl]-7-methyl-1,7-diazaspiro[4.4]nonan-6-one hydrochloride], the IC50 runs as follows: under setting [1], 10 µM; under setting [2], 126 µM.

`O=C1NCC[C@]12CC[C@H](c1cc(-c3cccc(OC(F)(F)F)c3)ccn1)N2` [Example 117, (2R,5R)-2-[4-[3-(Trifluoromethoxy)phenyl]-2-pyridyl]-1,7-diazaspiro[4.4]nonan-6-one hydrochloride]: the IC50 is 0.398 µM under setting [1] and 7.94 µM under setting [2].

Turning to `CCCOc1ccc(F)c(-c2cc(C)nc([C@@H]3CC[C@]4(CCN(C)C4=O)N3)c2)c1` [Example 201, (2S,5R)-2-[4-(2-Fluoro-5-propoxy-phenyl)-6-methyl-2-pyridyl]-7-methyl-1,7-diazaspiro[4.4]nonan-6-one hydrochloride], the IC50 is, setting by setting: under setting [1], 0.126 µM; under setting [2], 5.01 µM.

With `CN1CC[C@@]2(CC[C@H](c3cc(-c4ccc5c(ccn5C)c4)ccn3)N2)C1=O` [Example 79, (2R,5S)-7-Methyl-2-[4-(1-methylindol-5-yl)-2-pyridyl]-1,7-diazaspiro[4.4]nonan-6-one hydrochloride], the IC50 reads like this: under setting [1], 31.6 µM; under setting [2], 398 µM.

As to `CN1CC[C@@]2(CC[C@H](c3cc(-c4ccc(C(F)(F)F)cc4)c(OC(C)(C)C)cn3)N2)C1=O` [Example 62, (2R,5S)-2-[5-tert-Butoxy-4-[4-(trifluoromethyl)-phenyl]-2-pyridyl]-7-methyl-1,7-diazaspiro[4.4]nonan-6-one hydrochloride], the IC50 runs as follows: under setting [1], 2 µM; under setting [2], 79.4 µM.

With `CN1CC[C@]2(CC[C@@H](c3cc(-c4ccc(C(F)(F)F)cc4)c(F)cn3)N2)C1=O` [Example 60, (2S,5R)-2-[5-Fluoro-4-[4-(trifluoromethyl)phenyl]-2-pyridyl]-7-methyl-1,7-diazaspiro[4.4]nonan-6-one hydrochloride], the IC50 under setting [1] was 3.98 µM and the IC50 under setting [2] was 79.4 µM.
